Key:
[1] = Metabolite profile in plasma, liver and HT29 tumor after i.p. SN30000; format: in vivo, NIH-III mice; settings: SN30000 186 mg/kg i.p.; for Metabolite/SN30000 peak area, Tumor: HT29 tumor
Method: Mouse plasma and tissue homogenates, prepared from tissue samples in two volumes of ice-cold PBS using a TissueLyser II (Qiagen Sciences, Germantown, MD, United States) with 30 Hz oscillation frequency for 1 min, were processed by precipitating proteins with 3 vol MeOH and centrifuging (13,000 g, 4°C for 10 min). Supernatants were diluted into 3 vol water and analyzed with an Agilent model 6460 LC-MS/MS with an in-line photodiode array absorbance detector. Chromatographic separation was performed on a Zorbax Eclipse C18 column (100 mm × 3.0 mm, 1.8 μm; Agilent Technologies) at 35°C with a flow rate of 0.6 mL/min, with positive or negative mode electrospray ionization. The mobile phase was a gradient constructed using 80% MeCN/20% water/0.1% formic acid v/v/v (A) and 0.1% formic acid in water (B) from 10% A to 80% A with a total run time of […]. The gradient profile was: 0–4 min, 10% A; 4–11 min linear increase to 60% A; 11–12 min to 80% A; held for 1 min, returned to 10% A over 0.5 min and held for 2 min before the next sample injection. Absorbance spectra were collected from 230 to 600 nm with a reference wavelength of 550 nm. The mass/charge (m/z) ratio was scanned from 100 to 800 with a fragmentor voltage of 120 V. MS^2 with various collision energies was used for further characterization of some metabolites.
Metabolites were investigated in plasma, liver and HT29 tumors following i.p. dosing of female NIH-III mice with SN30000 at 186 mg/kg, which represents its previously determined MTD for this route and mouse strain ([Gu et al., 2014]). Representative chromatograms are shown in Supplementary Figure 1. A total of 19 metabolites (M1–M19) were provisionally identified (Figure 1 and Table 1). Assignments were confirmed by comparison with synthetic standards in the case of the 1-oxide M14 and nor-oxide M13, which have previously been reported as murine metabolites of SN30000 ([Wang et al., 2012]) and for M15 which is known to be the major photodegradation product of SN30000 ([Gu et al., 2014]). In addition, the previously unreported metabolite M18, which is the main plasma metabolite at late times, was isolated from pooled plasma of mice dosed with M14 in sufficient quantity for characterization by NMR (Supplementary Data). This identified M18 as an oxidation product of M14 with an alkanoic acid side-chain (Figure 1), an assignment that was confirmed by synthesis of the authentic compound which was identical by HPLC retention time, absorbance spectrum, elemental analysis, mass spectrum and NMR spectroscopy.

[2] = Compartmental plasma PK model; format: in vivo; set-up: Absorption rate constant Ka: unit not given here; settings: for Central compartment volume V1: 1-Oxide and Nor-oxide values fixed; for Absorption rate constant Ka: i.p. dosing compartment, SN30000 value fixed
From the text: This model, shown schematically in Figure 9, is based on total (free + bound) plasma concentrations; the major metabolites (M14, M13, and M18) are explicit and clearance of SN30000 occurs only by reduction to M14. The i.p. bioavailability of SN30000 was modeled with an additional term for loss from the peritoneal compartment (kloss).

[3] = in vivo; settings: NIH-III nude, mouse
Method: SN30000, M14 and M18 dosing solutions were prepared fresh in normal saline, filtered through 0.45 μm Acrodisc filters (Pall Life Sciences, Port Washington, NY, United States), protected from light in amber vials, and used within 3 h. Doses are expressed as mg of free base equivalent for SN30000 and M14, and free acid in the case of M18. […] Blood samples were collected from mice at various times by cardiac puncture, seconds after cervical dislocation, into ice-cold tubes containing K2EDTA. These were placed on ice immediately after collection and centrifuged (3,000 g, 3 min) within 10 min to harvest plasma. Plasma and tissues were rapidly frozen in liquid nitrogen before storage at -80°C for subsequent bioanalysis.
M18 was quantified by absorbance detection with reference to an external standard calibration curve.
Concentration-time data were analyzed by non-compartmental analysis using Phoenix WinNonlin (ver 6.4, Build 6.4.0768 Pharsight, United States); all AUC values were extrapolated to infinity using the linear trapezoidal rule. […] Model fits were further assessed by visual inspection of the residuals and predicted PK.

[4] = Plasma protein binding by equilibrium dialysis; format: in vitro ADME; settings: NIH-III mouse plasma, 37°C, 6 h
Method: TABLE 11: Protein binding of SN30000, M14 and M18 at the indicated concentrations in NIH-III mouse plasma, measured by equilibrium dialysisa.
(µM) Percent Protein Bound (Mean ± SD)b […]
a Protein binding was evaluated by equilibrium dialysis using a high throughput plate with 12-14KDa dialysis membrane (HTDialysis, Gales Ferry, CT) as described by Banker et al., 2003, with modification. Briefly, 100 µL samples of plasma containing SN30000 or metabolites (M14 and M18) were dialysed against 100 µL PBS (pH 7.4) in an incubator (Innova-42, New Brunswick Scientific, US ) at 37°C with shaking at 80 rpm for 6 h. To achieve matrix match, 10 µL of blank plasma was added to 90 µL of the PBS sample and 90 µL of PBS was added to 10 µL of the plasma sample. Proteins were precipitated with 3 vol of ice-cold MeCN, the centrifuged supernatants were mixed with 2 vol 45 mM ammonium formate buffer pH 4.5, and 50 µL samples were analysed by HPLC with absorbance […]
bValues are mean and SD for triplicate samples.

[5] = NIH-III, mouse, in vivo, model clearance of the compound, read-out: CL (converted)

For `c1c2c(cc3nc(CCCN4CCOCC4)nnc13)CCC2` [M13], the “Metabolite/SN30000 peak area, Tumor” value [1] was 0.11, the “Metabolite/SN30000 peak area, Liver” value [1] was 1.50 and the “Metabolite/SN30000 peak area, Plasma” value [1] was 0.08. The “Central compartment volume V1” value [2] was 2.2 L/kg, the clearance ([2]; NIH-III, mouse, plasma, other: i.p. and i.v. datasets fitted simultaneously, model clearance of the compound, read-out: CL (converted)) was 1280 mL/min/kg and the Vd ([2]; NIH-III, mouse, plasma, other: i.p. and i.v. datasets fitted simultaneously, read-out: Steady state volume VSS) was 11.6 L/kg. The “Approximate % suppression per °C of CL” value ([2]; mouse, in vivo) was roughly 23%, the “Peripheral compartment volume V2” value ([2]; mouse, in vivo) was 9.38 L/kg and the AUC ([3]; plasma, iv, 1.86 mg/kg) was 0.0047 µM·h. It also gave a half-life ([3]; plasma, iv, 1.86 mg/kg) of 27.7 min, an AUC ([3]; plasma, iv, 18.6 mg/kg) of 0.146 µM·h and a half-life ([3]; plasma, iv, 18.6 mg/kg) of 47.1 min. It also gave an AUC ([3]; plasma, iv, 78.3 mg/kg) of 3.34 µM·h and a half-life ([3]; plasma, iv, 78.3 mg/kg) of 38.9 min.

For `[O-][n+]1nc(CCCN2CCOCC2)nc2cc3c(cc21)CCC3` [M14], the “Metabolite/SN30000 peak area, Tumor” value [1] was 0.41, the “Metabolite/SN30000 peak area, Liver” value [1] was 5.18 and the “Metabolite/SN30000 peak area, Plasma” value [1] was 0.35. For the same molecule, the “Central compartment volume V1” value [2] was 2.2 L/kg, the “Temperature effect (N) on V1” value ([2]; (1+ΔT)^-N) was 0.48 and the “Approximate % suppression per °C of CL” value ([2]; NIH-III, mouse, in vivo) was roughly 82%. The “Approximate % suppression per °C of V1” value ([2]; NIH-III, mouse, in vivo) was roughly 28%, the “Intercompartmental clearance Clic” value ([2]; NIH-III, mouse, in vivo) was 77.3 mL/min/kg and the “Peripheral compartment volume V2” value ([2]; NIH-III, mouse, in vivo) was 3.51 L/kg. The clearance [2, 5] was 1020 mL/min/kg, the “Absorption rate constant Ka” value [2] was 4.43 and the “Percent Protein Bound (Mean ± SD)” value ([4]; 100 µM) was 65.81 ± 0.02%. It also gave an AUC ([3]; in vivo, iv, 1.86 mg/kg) of 0.042 µM·h, a half-life ([3]; in vivo, iv, 1.86 mg/kg) of 12.3 min and an AUC ([3]; in vivo, iv, 18.6 mg/kg) of 0.6 µM·h. It also gave a half-life ([3]; in vivo, iv, 18.6 mg/kg) of 28.5 min, an AUC ([3]; in vivo, iv, 78.3 mg/kg) of 11.6 µM·h and a half-life ([3]; in vivo, iv, 78.3 mg/kg) of 31.5 min.

With `O=C(O)CCc1nc2cc3c(cc2[n+]([O-])n1)CCC3` [M18] the “Metabolite/SN30000 peak area, Tumor” value [1] was 1.63, the “Metabolite/SN30000 peak area, Liver” value [1] was 0.60 and the “Metabolite/SN30000 peak area, Plasma” value [1] was 1.14. The “Central compartment volume V1” value [2] was 0.43 L/kg, the clearance [2, 5] was 3.83 mL/min/kg and the “Percent Protein Bound (Mean ± SD)” value ([4]; 10 µM) was 91.77 ± 0.01%. For the same molecule, the “Percent Protein Bound (Mean ± SD)” value ([4]; 100 µM) was 90.32 ± 0.01%, the AUC ([3]; in vivo, iv, 1.86 mg/kg) was 0.77 µM·h and the AUC ([3]; in vivo, iv, 18.6 mg/kg) was 10.1 µM·h. It also gave a half-life ([3]; in vivo, iv, 18.6 mg/kg) of 101 min, an AUC ([3]; in vivo, iv, 78.3 mg/kg) of 60.9 µM·h and a half-life ([3]; in vivo, iv, 78.3 mg/kg) of 75 min.

For `[O-][n+]1nc(CCCN2CCOCC2)[n+]([O-])c2cc3c(cc21)CCC3` [SN30000, 3-(3-Morpholinopropyl)-7,8-dihydro-6H-indeno[5,6-e][1,2,4]triazine 1,4-dioxide], the “Metabolite/SN30000 peak area, Tumor” value [1] was 1.00, the “Metabolite/SN30000 peak area, Liver” value [1] was 1.00 and the “Metabolite/SN30000 peak area, Plasma” value [1] was 1.00. For the same molecule, the “Central compartment volume V1” value [2] was 1.95 L/kg, the “Temperature effect (N) on Kloss for i.p. SN30000” value ([2]; (1+ΔT)^-N) was 2.80 and the “Intercompartmental clearance Clic” value ([2]; NIH-III, mouse, in vivo) was 18.7 mL/min/kg. The “Peripheral compartment volume V2” value ([2]; NIH-III, mouse, in vivo) was 0.64 L/kg, the “Approximate % suppression per °C of Kloss for i.p. SN30000” value ([2]; NIH-III, mouse, in vivo, ip) was roughly 86% and the clearance ([2]; NIH-III, mouse, in vivo, model clearance) was 189 mL/min/kg. For the same molecule, the “Absorption rate constant Ka” value [2] was 60, the “Kloss for i.p. SN30000” value ([2]; loss from peritoneal compartment) was 67.48 L/h and the “Percent Protein Bound (Mean ± SD)” value ([4]; 10 µM) was 21.93 ± 0.17%. For the same molecule, the “Percent Protein Bound (Mean ± SD)” value ([4]; 100 µM) was 26.68 ± 0.04%, the clearance ([3]; in vivo, 78 mg/kg) was 84 mL/min/kg and the clearance ([3]; in vivo, iv) was 83.3 to 167 mL/min/kg. It also gave an AUC ([3]; in vivo, iv, 1.86 mg/kg) of 0.53 µM·h, a Cmax ([3]; in vivo, iv, 1.86 mg/kg) of 1.86 ± 0.13 µM and a Vd ([3]; in vivo, iv, 1.86 mg/kg) of 1.52 L/kg. The clearance ([3]; in vivo, iv, 1.86 mg/kg) was 177 mL/min/kg, the half-life ([3]; in vivo, iv, 1.86 mg/kg) was 8.03 min and the AUC ([3]; in vivo, iv, 18.6 mg/kg) was 8.1 µM·h. For the same molecule, the Cmax ([3]; in vivo, iv, 18.6 mg/kg) was 25.2 ± 0.27 µM, the Vd ([3]; in vivo, iv, 18.6 mg/kg) was 1.29 L/kg and the clearance ([3]; in vivo, iv, 18.6 mg/kg) was 116 mL/min/kg. For the same molecule, the half-life ([3]; in vivo, iv, 18.6 mg/kg) was 27.6 min, the AUC ([3]; in vivo, iv, 78.3 mg/kg) was 47 µM·h and the Cmax ([3]; in vivo, iv, 78.3 mg/kg) was 81.9 ± 2.71 µM. It also gave a Vd ([3]; in vivo, iv, 78.3 mg/kg) of 2.24 L/kg, a clearance ([3]; in vivo, iv, 78.3 mg/kg) of 84 mL/min/kg and a half-life ([3]; in vivo, iv, 78.3 mg/kg) of 23.9 min.

Source: PMC5554537 (Frontiers in Pharmacology, 2017)
